The nature of series [1]: LD50 acute toxicity, rat (Litchfield and Wilcoxon method). As to conditions: in vivo. From the text: (§1) As known, carnitine contains an asimmetric atom and consequently exists in two stereoisomers. […] Thus, the LD50 in rats and mice assessed for various routes of administration according to the Litchfield and Wilcoxon method is as shown in the following Table A. (Litchfield, J. T., and Wilcoxon, F., J. Pharm. Exptl. Therap. 96, 99. 1949).

A short description of series [2]: LD50 acute toxicity, mouse (Litchfield and Wilcoxon method). As to conditions: in vivo.
From the text: as §1

Series [3] is described as follows: Activity and toxicity comparison of carnitine isomers (in words). As to conditions: isomers of carnitine compared.
From the text: as §1

Series [4] is described as follows: Effective utilization of exogenous glycerides on daily carnitine dosing. It is filed as in vivo, patient. The procedure:
The dose of carnitine which is administered will be determined by the attending physician having regard to the age, weight and condition of the patient, using sound professional judgement. Although effective utilization of exogenous glycerides can be noticed at doses as low as from 30 to 50 mg/kg of body weight daily, a dose of from about 150 to about 200 mg/kg of body weight daily is preferred.

With `C[N+](C)(C)C[C@@H](O)CC(=O)[O-]` [D-carnitine], the LD50 – broadly, the dose expected to kill half of the subjects tested – in series [1] (sc) worked out at 10000 mg/kg; in series [2] (sc), 5400 mg/kg. Also, the “toxicity of the isomer” value in series [3] is “slightly more toxic”.

Regarding `C[N+](C)(C)CC(O)CC(=O)[O-]` (stereo not shown) [carnitine], the minimal effective dose in series [4] (Homo sapiens, daily carnitine dose, read-out: dose at which effective utilization of exogenous glycerides can be noticed) was in the range of 30 to 50 mg/kg/day. For the same compound, the toxicity of carnitine result in series [4] (in vivo) is listed as “extremely low toxicity”.

For the compound `C[N+](C)(C)CC(O)CC(=O)[O-]` (racemic) [D,L-carnitine], the LD50 in series [1] (iv) was determined as 995 mg/kg; in series [2] (iv), 610 mg/kg; in series [2] (sc) it was 6000 mg/kg.

Consider `C[N+](C)(C)C[C@H](O)CC(=O)[O-]` [L-carnitine], for which, in series [2] (sc), the LD50 came to 7000 mg/kg. The “activity of the isomer” value in series [3] is recorded as “more active”.

Values taken from US4254147A, “Pharmaceutical composition for total parenteral nutrition” (priority 1978, dated 1981).
